We go through 23 compounds from patent US20260325661A1, “ANTIBODY-CONJUGATED IMMUNO-ACTIVATING SMALL MOLECULE COMPOUND, AND USE” (SHENZHEN CONJUGENIX PHARMACEUTICAL TECHNOLOGY CO., LTD, priority 2023, published 2026).

The test system of this experiment is human peripheral blood mononuclear cells (PBMCs). Put plainly: ELISA assay of immunocyte activator: induction of IFN-γ in human PBMCs. The format is cell-based. As to the method:
The immune activity of each compound is represented by the function of inducing human peripheral blood mononuclear cells (PBMCs) to produce the immune cytokine IFN-γ by, and the EC50 values thereof are shown in Table 3.
• 1) Peripheral blood samples from healthy human volunteer were collected into heparin anticoagulant tubes to reach 5 mL of fresh blood, and PBS was added at a ratio of 1:1 to dilute the blood (2 mL+2 mL in conventional blood collection tubes). • 2) 5 mL of lymphocyte separation medium was put in a 15 mL sterile centrifuge tube for use. • 3) The diluted blood was aspirated and slowly added from 1 cm above the separation medium along the tube wall, so that the diluted blood overlaid the separation medium and formed a distinct interface therewith. • 4) The centrifuge tube was centrifuged at 2000 rpm at room temperature for 20 min. Now five layers formed in the centrifuge tube: the top layer was plasma layer, and the layer between the plasma layer and the lymphocyte separation medium was the lymphocyte layer as a white film. • 5) The mononuclear cell layer as a white film in the middle was aspirated carefully and mononuclear cells were aspirated as many as possible. The mononuclear cells were washed by more than 5 volumes of PBS twice, and each time, the mononuclear cells were centrifuged at 1500 rpm for 10 min. • 6) The supernatant was removed, then 1 mL of 1640 medium was added and mixed uniformly. A small amount of the mixture was taken for cell counting.
The prepared PBMCs were plated in a 96-well plate (Costar, 3894) (2×10^5 cells per well). Each compound in Table 3 was taken and added into the wells with plated cells at ten concentrations with uniform gradient distribution (0.0001-10 μM, diluted with […] medium containing […]).
On the technique in general: ELISA stands for enzyme-linked immunosorbent assay.

Where [1] appears, read: Homo sapiens, PBMC, 24 h, 37 °C, no pretreatment marked, read-out: EC50 IFN-γ ratio (inducing human PBMCs to produce IFN-γ).
[2] abbreviates: Homo sapiens, PBMC, 24 h, 37 °C, Note c: sample pretreated with Cathepsin-B (10 μg) in PBS, room temperature, 3 h, read-out: EC50 IFN-γ ratio (inducing human PBMCs to produce IFN-γ).

The structures appear in SMILES notation. pEC50: −log10 of the molar value. Where two headings read alike, the source gives them in different places.

Consider `CCOC(=O)NC(=S)n1c(=O)n(Cc2ccc(CNC(=O)CCc3cn(CCOCCOCCOCCNC(=O)CCN4C(=O)C=CC4=O)nn3)cc2)c2nc(OCCOC)nc(N)c21` [Compound K15], for which the pEC50 (Homo sapiens, PBMC, 24 h, 37 °C, Note a: sample pretreated with human liver microsomal enzyme, 2 h, read-out: EC50 IFN-γ ratio (inducing human PBMCs to produce IFN-γ)) was 7.92. For `COCCOc1nc(N)c2c(n1)n(Cc1ccc(CNC(=O)CCc3cn(CCOCCOCCOCCNC(=O)CCN4C(=O)C=CC4=O)nn3)cc1)c(=O)n2COC(=O)OC(C)C` [Compound K16], the pEC50 (Homo sapiens, PBMC, 24 h, pH 5, 24 h, 37 °C; Note d: sample pretreated by hydrolysis, acetate buffer pH 5, 37 °C, 72 h; read-out: EC50 IFN-γ ratio (inducing human PBMCs to produce IFN-γ)) was 7.96.

On to `CC[C@@]1(O)C(=O)OCc2c1cc1n(c2=O)Cc2c-1nc1cc(F)c(C)c3c1c2[C@@H](NC(=O)CO[Si](OCCOCCOCCNC(=O)C(CCCCc1cn(CCOCCOCCOCCNC(=O)CCN2C(=O)C=CC2=O)nn1)NC(=O)CCC(=O)NCc1ccc(Cn2c(=O)[nH]c4c(N)nc(OCCOC)nc42)cc1)(C(C)C)C(C)C)CC3` (some centres unmarked) [Compound K17], for which, for the setting “Homo sapiens, PBMC; 24 h, 37 °C; no pretreatment marked; read-out: EC50 IFN-γ ratio (inducing human PBMCs to produce IFN-γ)”, the pEC50 is 6.68. Regarding `CCCCOc1nc(N)c2[nH]c(=O)n(Cc3cn(CCOCCOCCOCCN(C[C@H](C)c4ccc(-c5c(O)cc(C)c6[nH]c(=O)c7sccc7c56)cc4)C(=O)OCc4ccc(NC(=O)[C@H](CCCNC(N)=O)NC(=O)[C@@H](NC(=O)CCCCCN5C(=O)C=CC5=O)C(C)C)cc4)nn3)c2n1` [Compound K18], the pEC50 under setting [1] is 7.05. On to `CCCCOc1nc(N)c2[nH]c(=O)n(Cc3cn(CCOCCOCCOCCn4cc(CCCCN(C[C@H](C)c5ccc(-c6c(O)cc(C)c7[nH]c(=O)c8sccc8c67)cc5)C(=O)OCc5ccc(NC(=O)[C@H](CCCNC(N)=O)NC(=O)[C@@H](NC(=O)CCCCCN6C(=O)C=CC6=O)C(C)C)cc5)nn4)nn3)c2n1` [Compound K19], for which the pEC50 under setting [1] was 7.10. Take `C=CC(=O)N1CCN(c2ncnc3c(F)c(-c4c(F)cccc4OCCc4cn(CCCNc5nc(NCCOCCOCCOCCNC(=O)CCC(=O)NCc6ccc(Cn7c(=O)[nH]c8c(N)nc(OCCOC)nc87)cc6)nc(N6CCC(CNC(=O)OCc7ccc(NC(=O)[C@H](CCCNC(N)=O)NC(=O)[C@@H](NC(=O)CCOCCOCCOCCN=[N+]=[N-])C(C)C)cc7)CC6)n5)nn4)c(Cl)cc23)CC1` [Compound K21]: the pEC50 under setting [1] is 8.22. Take `CCCCOc1nc(N)c2c(n1)N(Cc1cn(CCNC(=O)OCc3ccc(NC(=O)[C@H](CCCNC(N)=O)NC(=O)[C@@H](NC(=O)CCOCCOCCOCCOCCN(CCOCCOCCOCCOCCC(=O)N[C@H](C(=O)N[C@@H](CCCNC(N)=O)C(=O)Nc4ccc(COC(=O)NCCn5cc(Cn6c(=O)[nH]c7c(N)nc(OCCCC)nc76)nn5)cc4)C(C)C)C(=O)CCN4C(=O)C=CC4=O)C(C)C)cc3)nn1)C(=O)C2` [Compound K22]: the pEC50 under setting [2] is 7.10. In the case of `COCCOc1nc(N)c2[nH]c(=O)n(Cc3ccc(CNC(=O)CCc4cn(CCOCCOCCOCCN(CCOCCOCCOCCn5cc(CCC(=O)NCc6ccc(Cn7c(=O)[nH]c8c(N)nc(OCCOC)nc87)cc6)nn5)C(=O)OCc5ccc(NC(=O)[C@H](CCCNC(N)=O)NC(=O)[C@@H](CC(=O)NCOCCOCCOCCN=[N+]=[N-])C(C)C)cc5)nn4)cc3)c2n1` [Compound K23], the pEC50 under setting [1] is 7.52. For `COCCOc1nc(N)c2[nH]c(=O)n(Cc3ccc(CNC(=O)CCC(=O)NC(CCCCc4cn(CCOCCOCCOCCNC(=O)CCN5C(=O)C=CC5=O)nn4)C(=O)NCCOCCOCCOCCOCCNC(=O)CCC(=O)N4Cc5ccccc5C#Cc5ccccc54)cc3)c2n1` (centres unmarked) [Compound K24], the pEC50 under setting [1] is 8.52. As for `COCCOc1nc(N)c2[nH]c(=O)n(Cc3ccc(CNC(=O)CCC(=O)NC(CCCCc4cn(CCOCCOCCOCCNC(=O)CCN5C(=O)C=CC5=O)nn4)C(=O)NCCOCCOCCOCCOc4ccc(-c5nnc(C)nn5)cc4)cc3)c2n1` (centres unmarked) [Compound K25], the pEC50 under setting [1] is 8.30. Take `COCCOc1nc(N)c2[nH]c(=O)n(Cc3ccc(CNC(=O)CCC(=O)NC(CCCCc4cn(CCOCCOCCOCCNC(=O)CCN5C(=O)C=CC5=O)nn4)C(=O)NCCOCCOCCOCCNC(=O)OC4CC/C=C/CCC4)cc3)c2n1` (centres unmarked) [Compound K26]: the pEC50 under setting [1] was 8.70. Still for that read-out and setting: for `COCCOc1nc(N)c2[nH]c(=O)n(Cc3ccc(CNC(=O)CCC(=O)NC(CCCCc4cn(CCCCN5CCN(CCCNC(=S)N6CCCC(n7nc(-c8ccc(Oc9ccccc9)cc8)c8c(N)ncnc87)C6)CC5)nn4)C(=O)N4CCN(C(=O)OCc5ccc(NC(=O)[C@H](CCCNC(N)=O)NC(=O)[C@@H](NC(=O)CCOCCOCCOCCOCCN6C(=O)C=CC6=O)C(C)C)cc5)CC4)cc3)c2n1` (some centres unmarked) [Compound K27] the value was 6.60; for `COCCOc1nc(N)c2[nH]c(=O)n(Cc3ccc(CNC(=O)CCC(=O)NC(CCCCNC(=O)OCc4ccc(NC(=O)[C@H](CCCNC(N)=O)NC(=O)[C@@H](NC(=O)CCCCCN5C(=O)C=CC5=O)C(C)C)cc4)C(=O)NCCOCCOCCOCCOc4ccc(-c5nnc(C)nn5)cc4)cc3)c2n1` (some centres unmarked) [Compound K29], 7.51; for `COCCOc1nc(N)c2[nH]c(=O)n(Cc3ccc(CNC(=O)CCC(=O)NC(CCCCNC(=O)OCc4ccc(NC(=O)[C@H](CCCNC(N)=O)NC(=O)[C@@H](NC(=O)CCCCCN5C(=O)C=CC5=O)C(C)C)cc4)C(=O)NCCOCCOCCOCCNC(=O)OC4CC/C=C/CCC4)cc3)c2n1` (some centres unmarked) [Compound K30], 7.23. On the same count and under the same terms, for `COCCOc1nc(N)c2[nH]c(=O)n(Cc3ccc(CNC(=O)CCC(=O)NC(CCCCc4cn(CCOCCOCCOCCNC(=O)CCOCCOCCNC(=O)OCC5C6CCC#CCCC65)nn4)C(=O)N[C@H](C(=O)N[C@@H](CCCNC(N)=O)C(=O)Nc4ccc(COC(=O)NC[C@H](C)c5ccc(-c6c(O)cc(C)c7[nH]c(=O)c8sccc8c67)cc5)cc4)C(C)C)cc3)c2n1` (some centres unmarked) [Compound K31] the value was 7.54. On to `C#Cc1c(F)ccc2cc(O)cc(-c3ncc4c(N5CC6CCC(C5)N6C(=O)OCc5ccc(NC(=O)[C@H](CCCNC(N)=O)NC(=O)[C@@H](NC(=O)C(CCCCc6cn(CCOCCOCCOCCNC(=O)CCN7C(=O)C=CC7=O)nn6)NC(=O)CCC(=O)NCc6ccc(Cn7c(=O)[nH]c8c(N)nc(OCCOC)nc87)cc6)C(C)C)cc5)nc(OC[C@@]56CCCN5C[C@H](F)C6)nc4c3F)c12` (some centres unmarked) [Compound K32], for which the pEC50 under setting [1] was 6.80.

Take `C#Cc1c(F)ccc2cc(O)cc(-c3c(Cl)cc4c(N5CC6CCC(C5)N6C(=O)OCc5ccc(NC(=O)[C@H](CCCNC(N)=O)NC(=O)[C@@H](NC(=O)C(CCCCc6cn(CCOCCOCCOCCNC(=O)CCN7C(=O)C=CC7=O)nn6)NC(=O)CCC(=O)NCc6ccc(Cn7c(=O)[nH]c8c(N)nc(OCCOC)nc87)cc6)C(C)C)cc5)nc(OC[C@@]56CCCN5C[C@H](F)C6)nc4c3F)c12` (some centres unmarked) [Compound K33]: the pEC50 under setting [1] was 6.74. For the compound `CCCCOc1nc(N)c2[nH]c(=O)n(Cc3ccc(NC(=S)Nc4sc5c(c4C(=O)N[C@@H](CCCCNC(=O)OCc4ccc(NC(=O)[C@H](CCCNC(N)=O)NC(=O)[C@@H](NC(=O)CCCCCN6C(=O)C=CC6=O)C(C)C)cc4)C(=O)NCCOCCOCCOCCOCCNC(=O)CCC(=O)N4Cc6ccccc6C#Cc6ccccc64)CCCC5)cc3)c2n1` [Compound K34], the pEC50 under setting [1] is 6.88.

`C=CC(=O)Nc1cc(Nc2nccc(-c3cn(C)c4ccccc34)n2)c(OC)cc1N(C)CCN(C)CCCCCCNC(=O)C(CCCCc1cn(CCOCCOCCOCCNC(=O)CCC(=O)N2Cc3ccccc3C#Cc3ccccc32)nn1)NC(=O)CCC(=O)NCc1ccc(Cn2c(=O)[nH]c3c(N)nc(OCCOC)nc32)cc1` (centres unmarked) [Compound K35]: under setting [1], the pEC50 was 6.59.

Take `C=CC(=O)Nc1cc(Nc2nccc(-c3cn(C)c4ccccc34)n2)c(OC)cc1N(C)CCN(C)CCCCCCNC(=O)[C@@H](CCCCn1cc(COCCOCCOCCOCCNC(=O)CCC(=O)N2Cc3ccccc3C#Cc3ccccc32)nn1)NC(=O)COCCOCCOCCn1cc(Cn2c(=O)[nH]c3c(N)nc(OCCCC)nc32)nn1` [Compound K36]: under setting [1], the pEC50 was 6.96. On to `C=CC(=O)Nc1cc(Nc2nccc(-c3cn(C)c4ccccc34)n2)c(OC)cc1N(C)CCN(C)CCCCCCNC(=O)C(CCCCNC(=O)OCc1ccc(NC(=O)[C@H](CCCNC(N)=O)NC(=O)[C@@H](NC(=O)CCOCCOCCOCCOCCNC(=O)CCC(=O)N2Cc3ccccc3C#Cc3ccccc32)C(C)C)cc1)NC(=O)CCC(=O)NCc1ccc(Cn2c(=O)[nH]c3c(N)nc(OCCOC)nc32)cc1` (some centres unmarked) [Compound K37], for which, under “24 h, 37 °C; no pretreatment marked; read-out: EC50 IFN-γ ratio (inducing human PBMCs to produce IFN-γ)”, the pEC50 was 6.66. As to `C=CC(=O)Nc1cc(Nc2nccc(-c3cn(C)c4ccccc34)n2)c(OC)cc1N(C)CCN(C)CCOCCOCCOCCn1cc(Cn2c(=O)n(C(=O)NCCNC(=O)OCc3ccc(NC(=O)[C@H](CCCNC(N)=O)NC(=O)[C@@H](NC(=O)CCOCCOCCOCCOCCNC(=O)CCC(=O)N4Cc5ccccc5C#Cc5ccccc54)C(C)C)cc3)c3c(N)nc(OCCCC)nc32)nn1` [Compound K38], the pEC50 under setting [2] is 7.05. The same measure, in the same setting: for `C=C(CC(=O)OC)C(=O)NCc1ccc(Cn2c(=O)n(C(=O)NCCNC(=O)OCc3ccc(NC(=O)[C@H](CCCNC(N)=O)NC(=O)[C@@H](NC(=O)CCOCCOCCOCCOCCNC(=O)CCC(=O)N4Cc5ccccc5C#Cc5ccccc54)C(C)C)cc3)c3c(N)nc(OCCOC)nc32)cc1` [Compound K39] the value was 9.00.
